US12637440B2, “Amide derivative useful as diacylglycerol acyltransferase 2 inhibitor, and use thereof” (LG CHEM, LTD., priority 2019, dated 2026)

Target: T1, Recombinant human DGAT2 protein (Homo sapiens, UniProt Q96PD7)
T1 construct: FLAG (DYKDDDDK); (N); made in house; host or cells: Sf-21 insect cells (BacPAK baculovirus system); used as a membrane preparation
T1 sequence (Q96PD7 1-388): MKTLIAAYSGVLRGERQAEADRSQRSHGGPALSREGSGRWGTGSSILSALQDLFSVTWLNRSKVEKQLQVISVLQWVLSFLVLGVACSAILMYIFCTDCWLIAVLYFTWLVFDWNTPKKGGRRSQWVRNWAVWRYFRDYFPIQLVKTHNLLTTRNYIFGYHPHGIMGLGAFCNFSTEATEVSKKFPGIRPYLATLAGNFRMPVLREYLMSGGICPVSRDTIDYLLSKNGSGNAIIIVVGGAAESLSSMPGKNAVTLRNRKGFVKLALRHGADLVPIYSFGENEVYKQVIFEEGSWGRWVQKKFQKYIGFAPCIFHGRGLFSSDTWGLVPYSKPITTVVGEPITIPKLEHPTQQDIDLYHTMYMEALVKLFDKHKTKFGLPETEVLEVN
Experiment: Measurement of inhibitory effect against DGAT2 enzyme activity (SPA, Phospholipid FlashPlate, [14C]-TG production)
Type: biochemical
Conditions: concentration inhibiting [14C]-labeled triacyl glycerol (TG) production by 50%; 2 μg DGAT2-membrane protein from Sf-21 cells, 37° C.
In short: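 Membranes from Sf-21 cells expressing human DGAT2 (2 μg) preincubated 20 min at 37 °C with compound (3 nM–10 μM, 1% DMSO) in HEPES/MgCl2/BSA with 50 μM 1,2-dioleoyl glycerol, then 1 μM [14C]oleoyl-CoA for 15 min. [14C]-TG measured by SPA FlashPlate; inhibition as % of untreated control.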

Structure (SMILES) | IC50 [nM]
CCOc1ccccc1O[C@@H]1CCCN(c2cncc(NC(=O)[C@@H]3CCCN(c4cccc(CC(C)(C)C(=O)O)c4)C3)n2)C1 [Example 85, 3-(3-((R)-3-((6-((R)-3-(2-ethoxyphenoxy)piperidin-1-yl)pyrazin-2-yl)carbamoyl)piperidin-1-yl)phenyl)-2,2-dimethylpropanoic acid] | 42
CCOc1ccccc1O[C@@H]1CCCN(c2cncc(NC(=O)C(C)(C)c3ccc(N4CCC(C(=O)O)CC4)cc3)n2)C1 [Example 86, (R)-1-(4-(1-((6-(3-(2-ethoxyphenoxy)piperidin-1-yl)pyrazin-2-yl)amino)-2-methyl-1-oxopropan-2-yl)phenyl)piperidine-4-carboxylic acid] | > 10000
CCOc1ccccc1O[C@@H]1CCCN(c2cncc(NC(=O)C3CCN(c4ccc(C(=O)O)cn4)C3)n2)C1 (stereo partly drawn) [Example 87, 6-(3-((6-((R)-3-(2-ethoxyphenoxy)piperidin-1-yl)pyrazin-2-yl)carbamoyl)pyrrolidin-1-yl)nicotinic acid] | 160
CCOc1ccccc1O[C@@H]1CCCN(c2cncc(NC(=O)C3(C)CCNC3)n2)C1 (stereo partly drawn) [Example 88, N-(6-((R)-3-(2-ethoxyphenoxy)piperidin-1-yl)pyrazin-2-yl)-3-methylpyrrolidine-3-carboxamide] | 6200
CCOc1ccccc1O[C@@H]1CCCN(c2cncc(NC(=O)C3(C)CCN(c4ccc(C(=O)O)cn4)C3)n2)C1 (stereo partly drawn) [Example 89, 6-(3-((6-((R)-3-(2-ethoxyphenoxy)piperidin-1-yl)pyrazin-2-yl)carbamoyl)-3-methylpyrrolidin-1-yl)nicotinic acid] | 590
CC(C)Oc1ccccc1O[C@@H]1CCCN(c2cncc(NC(=O)Cc3ccc(CC(=O)O)cc3)n2)C1 [Example 90, (R)-2-(4-(2-((6-(3-(2-isopropoxyphenoxy)piperidin-1-yl)pyrazin-2-yl)amino)-2-oxoethyl)phenyl)acetic acid] | > 10000
COc1ccccc1O[C@@H]1CCCN(c2cncc(NC(=O)CCc3ccc(C(C)(C)C(=O)O)cc3)n2)C1 [Example 91, (R)-2-(4-(3-((6-(3-(2-methoxyphenoxy)piperidin-1-yl)pyrazin-2-yl)amino)-3-oxopropyl)phenyl)-2-methylpropanoic acid] | 370
CC(C)(C(=O)O)c1ccc(CCC(=O)Nc2cncc(N3CCC[C@@H](Oc4ccccc4OCCF)C3)n2)cc1 [Example 93, (R)-2-(4-(3-((6-(3-(2-(2-fluoroethoxy)phenoxy)piperidin-1-yl)pyrazin-2-yl)amino)-3-oxopropyl)phenyl)-2-methylpropanoic acid] | 190
CC(C)(Cc1ccc(CC(=O)Nc2cncc(N3CCC[C@@H](Oc4ccccc4OCCF)C3)n2)cc1)C(=O)O [Example 94, (R)-3-(4-(2-((6-(3-(2-(2-fluoroethoxy)phenoxy)piperidin-1-yl)pyrazin-2-yl)amino)-2-oxoethyl)phenyl)-2,2-dimethylpropanoic acid] | 110
CC(C)(Cc1ccc(CC(=O)Nc2cncc(N3CCC[C@@H](Oc4ccccc4OC4CC4)C3)n2)cc1)C(=O)O [Example 95, (R)-3-(4-(2-((6-(3-(2-cyclopropoxyphenoxy)piperidin-1-yl)pyrazin-2-yl)amino)-2-oxoethyl)phenyl)-2,2-dimethylpropanoic acid] | 150
CC(C)(Cc1ccc(CC(=O)Nc2cncc(N3CCC[C@@H](Oc4ccccc4OC4CCC4)C3)n2)cc1)C(=O)O [Example 96, (R)-3-(4-(2-((6-(3-(2-cyclobutoxyphenoxy)piperidin-1-yl)pyrazin-2-yl)amino)-2-oxoethyl)phenyl)-2,2-dimethylpropanoic acid] | 200
CC(C)(C(=O)O)c1ccc(CCC(=O)Nc2cncc(N3CCC[C@@H](Oc4ccccc4OC4CCC4)C3)n2)cc1 [Example 98, (R)-2-(4-(3-((6-(3-(2-cyclobutoxyphenoxy)piperidin-1-yl)pyrazin-2-yl)amino)-3-oxopropyl)phenyl)-2-methylpropanoic acid] | 81
CCOc1ccccc1O[C@@H]1CCCN(c2cncc(NC(=O)Cc3ccc(OCC(=O)O)cc3)n2)C1 [Example 99] | 2900
CCOc1ccccc1O[C@@H]1CCCN(c2cncc(NC(=O)COc3ccc(CC(=O)O)cc3)n2)C1 [Example 100, (R)-2-(4-(2-((6-(3-(2-ethoxyphenoxy)piperidin-1-yl)pyrazin-2-yl)amino)-2-oxoethoxy)phenyl)acetic acid] | 590
CCOc1ccccc1O[C@@H]1CCCN(c2cncc(NC(=O)COc3ccc(C(C)C(=O)O)cc3)n2)C1 (stereo partly drawn) [Example 101, 2-(4-(2-((6-((R)-3-(2-ethoxyphenoxy)piperidin-1-yl)pyrazin-2-yl)amino)-2-oxoethoxy)phenyl)propanoic acid] | 320
CCOc1ccccc1O[C@@H]1CCCN(c2cncc(NC(=O)Cc3ccc(OCC(C)(C)C(=O)O)cc3)n2)C1 [Example 102] | 450
CCOc1ccccc1O[C@@H]1CCCN(c2cncc(NC(=O)Cc3ccc(O[C@H](C)C(=O)O)cc3)n2)C1 [Example 103, (R)-2-(4-(2-((6-((R)-3-(2-ethoxyphenoxy)piperidin-1-yl)pyrazin-2-yl)amino)-2-oxoethyl)phenoxy)propanoic acid] | 620
CCOc1ccccc1O[C@@H]1CCCN(c2cncc(NC(=O)Cc3ccc(O[C@@H](C)C(=O)O)cc3)n2)C1 [Example 104, (S)-2-(4-(2-((6-((R)-3-(2-ethoxyphenoxy)piperidin-1-yl)pyrazin-2-yl)amino)-2-oxoethyl)phenoxy)propanoic acid] | 660
CCOc1cccnc1O[C@@H]1CCCN(c2cncc(NC(=O)Cc3ccc(OC(C)(C)C(=O)O)cc3)n2)C1 [Example 105, (R)-2-(4-(2-((6-(3-((3-ethoxypyridin-2-yl)oxy)piperidin-1-yl)pyrazin-2-yl)amino)-2-oxoethyl)phenoxy)-2-methylpropanoic acid] | 90
CCOc1ccccc1O[C@@H]1CCCN(c2nccc(NC(=O)Cc3ccc(OC(C)(C)C(=O)O)cc3)n2)C1 [Example 106, (R)-2-(4-(2-((2-(3-(2-ethoxyphenoxy)piperidin-1-yl)pyrimidin-4-yl)amino)-2-oxoethyl)phenoxy)-2-methylpropanoic acid] | 730
CCOc1ccccc1O[C@@H]1CCCN(c2cncc(NC(=O)Cc3ccc(OCc4ccc(C(C)(C)C(=O)O)cc4)cc3)n2)C1 [Example 107, (R)-2-(4-((4-(2-((6-(3-(2-ethoxyphenoxy)piperidin-1-yl)pyrazin-2-yl)amino)-2-oxoethyl)phenoxy)methyl)phenyl)-2-methylpropanoic acid] | 70
CCOc1cccnc1O[C@@H]1CCCN(c2cncc(NC(=O)CCc3ccc(OC(C)(C)C(=O)O)cc3)n2)C1 [Example 108, (R)-2-(4-(3-((6-(3-((3-ethoxypyridin-2-yl)oxy)piperidin-1-yl)pyrazin-2-yl)amino)-3-oxopropyl)phenoxy)-2-methylpropanoic acid] | 78
CCOc1ccccc1O[C@@H]1CCCN(c2nccc(NC(=O)CCc3ccc(OC(C)(C)C(=O)O)cc3)n2)C1 [Example 109, (R)-2-(4-(3-((2-(3-(2-ethoxyphenoxy)piperidin-1-yl)pyrimidin-4-yl)amino)-3-oxopropyl)phenoxy)-2-methylpropanoic acid] | 1100
CCOc1ccccc1O[C@@H]1CCCN(c2cncc(NC(=O)C(C)(C)c3ccc(CC(C)(C)C(=O)O)cc3)n2)C1 [Example 110, (R)-3-(4-(1-((6-(3-(2-ethoxyphenoxy)piperidin-1-yl)pyrazin-2-yl)amino)-2-methyl-1-oxopropan-2-yl)phenyl)-2,2-dimethylpropanoic acid] | 76
CCOc1ccccc1O[C@@H]1CCCN(c2cncc(NC(=O)C(C)(C)Cc3ccc(C(C)(C)C(=O)O)cc3)n2)C1 [Example 111, (R)-2-(4-(3-((6-(3-(2-ethoxyphenoxy)piperidin-1-yl)pyrazin-2-yl)amino)-2,2-dimethyl-3-oxopropyl)phenyl)-2-methylpropanoic acid] | 690
CCOc1ccccc1O[C@@H]1CCCN(c2nccc(NC(=O)Cc3ccc(CC(C)(C)C(=O)O)cc3)n2)C1 [Example 112, (R)-3-(4-(2-((2-(3-(2-ethoxyphenoxy)piperidin-1-yl)pyrimidin-4-yl)amino)-2-oxoethyl)phenyl)-2,2-dimethylpropanoic acid] | 60
CCOc1ccccc1O[C@@H]1CCCN(c2ccnc(NC(=O)Cc3ccc(CC(C)(C)C(=O)O)cc3)n2)C1 [Example 113, (R)-3-(4-(2-((4-(3-(2-ethoxyphenoxy)piperidin-1-yl)pyrimidin-2-yl)amino)-2-oxoethyl)phenyl)-2,2-dimethylpropanoic acid] | 150
CCOc1cccnc1O[C@@H]1CCCN(c2ccnc(NC(=O)Cc3ccc(CC(C)(C)C(=O)O)cc3)n2)C1 [Example 114, (R)-3-(4-(2-((4-(3-((3-ethoxypyridin-2-yl)oxy)piperidin-1-yl)pyrimidin-2-yl)amino)-2-oxoethyl)phenyl)-2,2-dimethylpropanoic acid] | 140
CCOc1cccnc1O[C@@H]1CCCN(c2nccc(NC(=O)Cc3ccc(CC(C)(C)C(=O)O)cc3)n2)C1 [Example 115, (R)-3-(4-(2-((2-(3-((3-ethoxypyridin-2-yl)oxy)piperidin-1-yl)pyrimidin-4-yl)amino)-2-oxoethyl)phenyl)-2,2-dimethylpropanoic acid] | 140
